Entries after “also recorded” stand apart in the source; their conditions may differ.
Experiments:
Assay type in all cases: cell-based, Glycine max
[1] = system: soybean cot-node explants; test: De novo shoot production on explants at four weeks on shoot induction media; details: for explants producing de novo shoots at four weeks: Experiment #1, Bert; for de novo shoot growth: Experiment #2, MN1301; for explants developing de novo shoots: Experiment #3, MN0901
Excerpt: The explants were removed from the chamber after 14 days and transferred to fresh shoot induction media containing herbicide selection. During the transfer, the hypocotyl was carefully removed from the developing shoot mass and imbedded into the media with the differentiating tissue flush with the media surface. The plates were placed back into the growth chamber for an additional 2 weeks. At the 4 week time point, explants without de novo shoot production were discarded. The cotyledons were then removed from the differentiating tissue by cutting at the base of the node and the callus trimmed before transferring into shoot elongation media containing MS salts (murashige and Skoog, 1962), MSIII iron stock, 3% sucrose, 3 mM MES, 0.8% agar, and filter sterilized B5 vitamins, 50 mg/l asparagine, 100 mg/l pyroglutamic acid, 1 mg/l zeatin riboside, 0.1 mg/l indole-acetic acid, 0.5 mg/l GA3, 100 mg/l cefotaxime, 500 mg/l ticarcillin, 1.3-5 mg/l PPT; pH 5.6). Also at this time, a percentage of the explants were sliced into about 10 sections and stained for both GUS positive sectors and GUS positive shoots. Every 2 weeks the explants were transferred into new shoot elongation media after removing dead plant tissue and the bottom of the explant cut to encourage shoot elongation of transformed shoots.
Five levels of cysteine were tested: 0 mg/l, 100 mg/l, 200 mg/l, 300 mg/l, and 400 mg/l. Cysteine was incorporated into the solid co-culture media by preparing the media as described hereinabove and dissolving the L-cysteine into the filter sterilized components. For these three experiments, no cysteine was added into the liquid co-cultivation media. To reduce experimental error, explants were placed randomly on all five different treatments and all plates within a treatment were shuffled after completion of the experiment. After co-cultivation, the explants in each treatment were placed on shoot induction media with ½ the concentration of cysteine as in the co-cultivation media. The specific details for each experiment are as follows: • 1. Experiment #1 used the Minnesota genotype Bert and Agrobacterium strain AGL1 containing the BSF16 binary plasmid. A total of 276 explants were wounded and infected with Agrobacterium. After co-cultivation, 10 explants of each treatment were immersed into GUS stain and assayed for transient expression and the remaining explants were washed and transferred to shoot induction media containing 1.33 mg/l PPT for all four weeks. De novo shoots were produced on 74% of the treatments containing 0 mg/l cysteine, 57% on 100 mg/l, 63% on 200 mg/l, 70% on 300 mg/l, and 77% on 400 mg/l at four weeks. […] Experiment #2 used the Minnesota genotype MN1301 and Agrobacterium strain AGL1 containing the BSF16 binary plasmid. A total of 229 explants were dissected, cut, and inoculated. For each cysteine-treatment, half of the explants were incubated during co-cultivation at 21-22° C. and the other half at 25° C. Five explants of each cysteine/temperature treatment were sacrificed to GUS stain and the remaining transferred to fresh shoot induction media containing 1.33 mg/l PPT for 2 weeks. The herbicide level was raised to 3.33 mg/l PPT for the second 2 weeks on shoot induction media. Because of poor de novo shoot growth (35% on 0 mg/l cysteine, 22.8% on 100 mg/l, 32% on 200 mg/l, 42% on 300 mg/l, and 28% on 400 mg/l) and contamination, all explants were sacrificed to GUS stain at the 4 week time point. • 3. Experiment #3 used the Minnesota genotype MN0901 and Agrobacterium strain AGL1 containing the BSF16 binary plasmid. Seedlings were germinated as usual, however, one half of the plates were placed at 4° C. for 24 hours before inoculation. A total of 390 explants were wounded and inoculated. For each cysteine/seedling-temperature treatment, one half of the explants were incubated during co-cultivation at 21-22° C. and the other half at 25° C. […]

soybean explants = test: Enzymatic browning and growth of soybean explants after co-cultivation; details: for enzymatic browning of soybean explants: cysteine (e.g., 400-1000 mg/l) in solid co-cultivation medium
[2] = system: soybean cot-node explants; test: GUS transient expression on soybean cot-node explants after 5-day co-cultivation with Agrobacterium (T-DNA delivery)

Compound: N[C@@H](CS)C(=O)O [L-cysteine]
- explants producing de novo shoots at four weeks ([1]; 100 mg/l cysteine, control 74%): 57%
- explants producing de novo shoots at four weeks ([1]; 200 mg/l cysteine): 63%
- explants producing de novo shoots at four weeks ([1]; 300 mg/l cysteine): 70%
- explants producing de novo shoots at four weeks ([1]; 400 mg/l cysteine): 77%
- de novo shoot growth ([1]; 100 mg/l cysteine, control 35%): 22.8%
- de novo shoot growth ([1]; 200 mg/l cysteine): 32%
- de novo shoot growth ([1]; 300 mg/l cysteine): 42%
- de novo shoot growth ([1]; 400 mg/l cysteine): 28%
- explants developing de novo shoots ([1]; 100 mg/l cysteine, control 64%): 53%
- explants developing de novo shoots ([1]; 200 mg/l cysteine): 54%
- explants developing de novo shoots ([1]; 300 mg/l cysteine): 53%
- explants developing de novo shoots ([1]; 400 mg/l cysteine): 61%
- callus growth on the hypocotyl (soybean explants; co-cultivated in 1000 mg/l cysteine, 28 days): little callus growth on the hypocotyl
- growth of the hypocotyls of explants (soybean explants; co-cultivated in 800 and 1000 mg/l cysteine, experiment #7): little to no growth of the hypocotyls
- enzymatic browning of soybean explants (soybean explants; listed as Cysteine): decreased
- enzymatic browning of soybean explants (soybean explants; listed as cysteine): less browning
- infection in genotypes that respond poorly to the cot-node method ([2]; 400 mg/l cysteine, MN1401, Granite, Lambert, MN1801, MN0301): significant increase in infection
- GUS+ foci on 5 day explants, cysteine only in liquid media ([2]; cysteine added only to liquid Agrobacterium culture (YEP) or liquid co-cultivation medium): did not increase; also recorded: no increases detected

— patent publication US7696408B2, “Method to enhance Agrobacterium-mediated transformation of plants” (Regents of the University of Minnesota, priority 1999, dated 2010)
